From paper doi:10.1101/2025.08.17.668569v1 (bioRxiv, 2025) come the findings set out here.

A short description of one data set: Solubility in water. Format: physicochemical.
Data set [1] has as its system 4T1 murine triple-negative breast cancer cells. Description: LDH assay. The format is cell-based.
Data set [2] has as its system CT2A murine glioblastoma cells. Description: LDH assay, CT2A cells. The format is cell-based. The note with it: read-out: EC50 CT2A, Fig. 2A, 2 h, representative of N = 3.
Data set [3] relates to HepG2 human liver cancer cells. Briefly: LDH assay, HepG2 cells. Format: cell-based. The note with it: read-out: EC50 HepG2, Fig. 2B, 2 h, representative of N = 3.
The subject of data set [4] is NCI-60 human tumor cell lines (59 cancer cell lines). The note with it: 48 h.
In data set [5] the test system is CT26 murine colon carcinoma cells. Description: LDH assay, CT26 cells. The format is cell-based. The note with it: read-out: EC50 CT26, Fig. 2A, 2 h, representative of N = 3.
The next data set deals with SUM149 cells. Description: LDH assay, SUM149 cells. Format: cell-based, human. The note with it: read-out: EC50 SUM149, Fig. 2B, 2 h, representative of N = 3.
Data set [6] deals with B16-F10 murine melanoma cells. Description: LDH assay, B16-F10 cells. The note with it: read-out: EC50 B16-F10, Fig. 2A, 2 h, representative of N = 3. The format is cell-based.
The test system of the next data set is CT26 tumors. Briefly: Tumor growth, CT26 murine colorectal model. The note with it: intratumoral NF27. The format is in vivo, BALB/c mice.
The subject of data set [7] is Panc10.05 human pancreatic cancer cells. Description: LDH assay, Panc10.05 cells. The note with it: read-out: EC50 Panc10.05, Fig. 2B, 2 h, representative of N = 3. The format is cell-based.
The subject of data set [8] is human melanoma cell line LOX IMVI. Briefly: NCI-60 screen, LOX IMVI. The format is cell-based. The note with it: 48 h, SRB.
The subject of data set [9] is U2OS human osteosarcoma cells. Briefly: LDH assay, U2OS cells. The format is cell-based. The note with it: read-out: EC50 U2OS, Fig. 2B, 2 h, representative of N = 3.
A short description of data set [10]: Half-life in murine serum. The note with it: mouse. The format is in vitro ADME.
For data set [11], the system named is MCA205 murine fibrosarcoma cells. Description: LDH assay, MCA205 cells. The note with it: read-out: EC50 MCA205, Fig. 2A, 2 h, representative of N = 3. Format: cell-based.
The test system of data set [12] is HT-29 human colorectal cancer cells. Description: LDH assay, HT-29 cells. The format is cell-based. The note with it: read-out: EC50 HT-29, Fig. 2B, 2 h, representative of N = 3.

Ends that are not written are not given here.

NGRKACLNPASIVKKIIKKILKI [NF11]: in the data set “Solubility in water” (lyophilized powder in water), the “solubility in water” value is given as “formed a hard gel in water”.

Take NGRKAKKNAKKVKKIIKKIKKI-NH2 [NF22]: the “oncolytic activity (LDH release)” value in data set [1] (initial screen, 4T1 cells) is listed as “no detectable oncolytic activity”.

For NGRKAKLNPASIVKKIIKKILKS-NH2 [NF27], the EC50 in data set [2] was determined as 14.7 µM; in [3], 27.7 µM; in data set [1] (read-out: EC50 4T1, Fig. 2A, LDH assay, 2 h, representative of N = 3) it was 12 µM; in data set [5], 4.4 µM; in the data set with SUM149 cells, 6.6 µM; in [6], 10.9 µM. Besides, the EC50 in [7] was determined as 21.3 µM; in [9], 11.5 µM; in [11], 10.5 µM; in data set [12], 24 µM. Moreover, the figures for the GI50 in data set [4] and in data set [8] were less than 10 µM and 26.3 µM, respectively. For the same substance, the solubility in “Solubility in water” (water) was no less than 40 mM. Besides, in the data set on CT26 tumors, the “side effects in murine tumor models” value is “no observable side effects”. Further, the half-life in data set [10] was 29 min.
